For test [1], the system named is primary cultured hippocampal neurons. The experiment in a line: MQAE intracellular chloride measurement in primary cultured hippocampal neurons. In kind it is cell-based, mouse. The following applies: co-treatment with bilirubin, DIV8 primary hippocampal neurons, MQAE. An excerpt:
Therefore, we hypothesized that bilirubin activation of WNK1 kinase activity might affect intracellular chloride levels. […] This was detected using the sensitive molecular probe N‐(Ethoxycarbonylmethyl)‐6‐Methoxyquinolinium Bromide (MQAE), as indicated by a reduction in MQAE fluorescence intensity (Figure 4C,E).^[ [32] ^]
To ascertain whether bilirubin regulates chloride ions through WNK1, we generated Wnk1 gene knockout primary cultured neurons. We achieved neuron‐specific deletion of Wnk1 in hippocampal neurons by transducing primary neurons isolated from Wnk1^flox/flox embryonic mice with a lentivirus expressing hSyn‐Cre‐EGFP.^[ [33], [34] ^] […] Intracellular chloride concentration is crucial for modulating inhibitory synaptic transmission and, consequently, neuronal excitability.
Since bilirubin‐induced activation of WNK1 kinase activity increases [Cl⁻]i in neurons, we sought to elucidate the downstream effector proteins of WNK1 that are involved in this process. Neuronal [Cl⁻]i is primarily regulated by the Cl⁻‐K⁺ symporter KCC2, with additional modulation by factors such as the Na⁺‐K⁺‐Cl⁻ co‐transporter NKCC1, GABAA receptors, and glycine receptors (GlyR), all of which contribute to [Cl⁻]i homeostasis.^[ [31] ^] To investigate the mechanism underlying bilirubin‐induced changes in [Cl⁻]i, we selectively targeted these proteins using pharmacological inhibitors (VU0463271 for KCC2, bumetanide for NKCC1, bicuculline for GABAA receptors, and strychnine for GlyR) and activated KCC2 using CLP257.^[ [35], [36] ^] […] The bilirubin‐induced effect on [Cl⁻]i was not observed in primary astrocytes (Figure S15A,B, Supporting Information) or the HEK 293T cell line (Figure S15C, Supporting Information), both of which lacked KCC2 expression (Figure S16A,B, Supporting Information), further confirming that the effects of bilirubin and WNK1 on [Cl⁻]i elevation are dependent on KCC2.
Intracellular chloride concentration ([Cl⁻]i) was measured using the MQAE fluorescent dye (Life Technologies) following established protocols (Zhang, Lee et al. 2015). […]

For test [2], the target named is T1, full-length hWNK1 (Homo sapiens, UniProt Q9H4A3).
T1 construct: We overexpressed full‐length WNK1 fused with Green Fluorescent Protein (GFP); expressed in transfected cells; host or cells: HEK293T
T1 sequence (Q9H4A3 whole entry, the tested form may be a part): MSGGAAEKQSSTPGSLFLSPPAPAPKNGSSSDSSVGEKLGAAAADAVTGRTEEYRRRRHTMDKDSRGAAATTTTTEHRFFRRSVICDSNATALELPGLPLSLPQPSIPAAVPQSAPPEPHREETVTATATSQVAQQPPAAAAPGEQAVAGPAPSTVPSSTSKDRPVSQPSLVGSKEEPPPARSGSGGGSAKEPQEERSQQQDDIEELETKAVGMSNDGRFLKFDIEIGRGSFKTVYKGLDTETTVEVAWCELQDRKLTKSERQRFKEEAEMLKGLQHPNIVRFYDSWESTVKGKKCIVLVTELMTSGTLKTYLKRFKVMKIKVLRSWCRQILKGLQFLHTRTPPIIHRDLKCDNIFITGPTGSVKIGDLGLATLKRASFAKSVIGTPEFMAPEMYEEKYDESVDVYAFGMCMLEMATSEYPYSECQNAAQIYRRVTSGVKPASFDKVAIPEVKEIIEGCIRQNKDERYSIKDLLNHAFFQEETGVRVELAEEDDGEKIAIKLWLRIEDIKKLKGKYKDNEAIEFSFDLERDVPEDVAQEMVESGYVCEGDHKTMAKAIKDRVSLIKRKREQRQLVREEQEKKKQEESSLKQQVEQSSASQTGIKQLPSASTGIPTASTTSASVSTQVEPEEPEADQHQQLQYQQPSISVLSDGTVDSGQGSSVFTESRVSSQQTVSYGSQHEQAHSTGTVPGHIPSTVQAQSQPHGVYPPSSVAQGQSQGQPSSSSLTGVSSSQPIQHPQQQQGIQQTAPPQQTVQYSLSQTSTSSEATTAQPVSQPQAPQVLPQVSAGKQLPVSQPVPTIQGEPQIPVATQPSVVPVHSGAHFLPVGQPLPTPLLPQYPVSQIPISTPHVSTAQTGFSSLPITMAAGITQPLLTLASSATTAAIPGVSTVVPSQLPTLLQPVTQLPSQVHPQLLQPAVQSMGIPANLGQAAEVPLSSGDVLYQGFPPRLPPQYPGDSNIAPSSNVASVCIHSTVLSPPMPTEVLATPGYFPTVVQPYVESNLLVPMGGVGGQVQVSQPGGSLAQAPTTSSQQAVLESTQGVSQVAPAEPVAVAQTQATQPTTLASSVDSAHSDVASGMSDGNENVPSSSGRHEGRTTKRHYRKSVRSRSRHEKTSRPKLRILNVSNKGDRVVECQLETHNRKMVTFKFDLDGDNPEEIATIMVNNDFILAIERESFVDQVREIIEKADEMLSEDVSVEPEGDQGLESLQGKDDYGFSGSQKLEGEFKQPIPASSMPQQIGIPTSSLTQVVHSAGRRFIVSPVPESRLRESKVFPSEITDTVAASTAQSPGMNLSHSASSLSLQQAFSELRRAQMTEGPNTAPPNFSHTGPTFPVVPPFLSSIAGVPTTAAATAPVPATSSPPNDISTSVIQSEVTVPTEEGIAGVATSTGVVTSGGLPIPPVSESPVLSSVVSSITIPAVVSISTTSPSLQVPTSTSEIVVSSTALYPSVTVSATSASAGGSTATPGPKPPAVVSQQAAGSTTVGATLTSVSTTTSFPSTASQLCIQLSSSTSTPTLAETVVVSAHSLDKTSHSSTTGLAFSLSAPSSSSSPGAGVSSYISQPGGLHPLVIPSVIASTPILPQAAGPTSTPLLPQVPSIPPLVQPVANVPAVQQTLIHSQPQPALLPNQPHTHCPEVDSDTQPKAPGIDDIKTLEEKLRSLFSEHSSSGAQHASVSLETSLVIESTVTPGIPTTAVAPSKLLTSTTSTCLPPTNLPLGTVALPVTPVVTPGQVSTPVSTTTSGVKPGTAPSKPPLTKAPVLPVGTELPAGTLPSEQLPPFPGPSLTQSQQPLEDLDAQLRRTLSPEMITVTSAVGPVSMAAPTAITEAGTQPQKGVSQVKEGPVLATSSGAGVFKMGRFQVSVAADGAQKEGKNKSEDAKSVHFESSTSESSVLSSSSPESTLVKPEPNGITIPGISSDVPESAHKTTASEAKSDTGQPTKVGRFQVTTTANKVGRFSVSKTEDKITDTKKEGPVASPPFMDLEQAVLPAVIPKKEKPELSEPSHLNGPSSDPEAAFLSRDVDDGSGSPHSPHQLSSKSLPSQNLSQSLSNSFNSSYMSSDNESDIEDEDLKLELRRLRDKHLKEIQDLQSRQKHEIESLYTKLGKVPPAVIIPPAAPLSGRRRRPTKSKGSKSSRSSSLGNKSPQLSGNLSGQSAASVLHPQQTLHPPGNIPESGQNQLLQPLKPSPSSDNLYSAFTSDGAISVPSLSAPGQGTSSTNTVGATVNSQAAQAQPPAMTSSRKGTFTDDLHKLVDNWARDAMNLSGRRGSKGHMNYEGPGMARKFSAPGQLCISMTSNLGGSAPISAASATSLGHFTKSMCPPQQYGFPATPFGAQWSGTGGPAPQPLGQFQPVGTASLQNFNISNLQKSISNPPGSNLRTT
The experiment in a line: MicroScale Thermophoresis (MST), EGFP-tagged full-length WNK1 in HEK293T cell lysates. The class given is binding. The following applies: 15 min incubation, lysates of EGFP-WNK1 expressing HEK293T cells, control ligand. As to the method:
To validate the direct binding of bilirubin to WNK1, we performed a Microscale Thermophoresis (MST) analysis, which assesses the binding capacity of a compound by measuring the movement of proteins over a microscopic temperature gradient.^[ [26], [27] ^] We overexpressed full‐length WNK1 fused with Green Fluorescent Protein (GFP) in HEK‐293 cells, incubated the lysates with bilirubin at varying dilutions, and subjected them to precise MST measurements in capillaries. […] Furthermore, biliverdin, a structurally similar intermediate product generated before bilirubin formation, was used as a control.
All WNK1 clones were derived from the original untagged hWNK1 cDNA (NM_018979), which was modified and subcloned into the pcDNA3.1, referred to as “full‐length WNK1” throughout this study. Truncated constructs, including 1–190aa, 191–491aa, 1–491aa, and 491–2382aa fragments, were generated by PCR using the full‐length template and subsequently ligated into linearized pcDNA3.1 vectors. WNK2 was obtained from Addgene Plasmid #24569, and WNK3 was obtained from Addgene Plasmid #81723. Both were subjected to base modifications and cloned into pcDNA3.1. The WNK4 clone was derived from hWNK4 cDNA (NM_032387.5), modified, and subcloned into the pCMV3‐C‐GFPSpark vector.
In HEK293T cells, proteins tagged with green fluorescent protein (GFP) were expressed. […]
(In general: MST reads how a fluorescent partner responds to local heating, with and without ligand.)

Test [3] deals with TRPM2 channels. More on the design: method as in PMID 36921602. The following applies: structural derivative of bilirubin; previous research; cited from earlier work.

Each structure is given as a SMILES string.

With `O=C1N=C(N2CCCCN2)S/C1=C\c1ccc(F)cc1O` [CLP257, reference compound], the “effect on bilirubin-induced elevation of [Cl−]i” value in test [1] is given as “counteracted the effect of bilirubin”.
In the case of `C=CC1=C(C)/C(=C/C2=NC(=C\c3[nH]c(/C=C4\NC(=O)C(C)=C4C=C)c(C)c3CCC(=O)O)/C(CCC(=O)O)=C2C)NC1=O` [Biliverdin, reference compound], binding in test [2] was put at a Kd of 29.7 µM. In addition, in test [3], the “activation of TRPM2 channels” value is recorded as “can activate”.

What is called Kd is a measure of binding affinity in units of concentration. A low value points to a tighter complex.

These data come from article PMC12362796, “Bilirubin Targeting WNK1 to Alleviate NLRP3‐Mediated Neuroinflammation” (Advanced Science, 2025).
